Laboratory results reported in article PMC10604565, “Modified CLEC3A-Derived Antimicrobial Peptides Lead to Enhanced Antimicrobial Activity against Drug-Resistant Bacteria” (Antibiotics, 2023).
Read-outs that look alike come from different tables or passages of the source. Non-standard residues stand in square brackets, D forms with d. Residues, ends and D or L forms follow the SMILES beside them. No end group written: not given here.

Assays:
[1] = test system: NIH3T3 cells (murine fibroblasts); assay: Cytotoxicity assay (MTS); type: cell-based
Procedure: NIH3T3 cells (murine fibroblasts), obtained from Prof. Dr. Wielckens, were seeded and precultured overnight. For 24 h incubation with peptides, a density of 1 × 10^4 cells/well and for 96 h incubation with peptides a density of 5 × 10^3 cells/well was used. After preculturing, the culture medium was replaced and cells were incubated with a peptide-containing medium for 24 h and 96 h. Afterward, the peptide-containing medium was removed and cells were washed with PBS before adding CellTiter 96® AQueous One Solution (Promega, Madison, WI, USA) containing 3-(4,5-dimethylthiazol-2-yl)-5-(3-carboxymethoxyphenyl)-2-(4-sulfophenyl)-2H-tetrazolium (MTS) to the culture medium. Cells incubated with peptides for 24 h were incubated with MTS medium for 1 h at 37 °C, and absorbance was measured at 490 nm. Cells incubated with peptides for 96 h were incubated with MTS medium for 2 h at 37 °C before measuring the absorbance. Samples were measured in triplicates, and the cell viability of three individual experiments is presented as a percentage of the measured OD from the untreated control. As further controls, vancomycin (final concentration 7.35 µg/mL), colistin (final concentration 147 µg/mL), and 1% TritonX in culture medium were used. Used peptide concentrations are provided in Supplementary Table S2.

MRSA = type: cell-based, methicillin-resistant Staphylococcus aureus (MRSA-43300)
Procedure: (§1) Pseudomonas aeruginosa (Psae-27853), Staphylococcus aureus (ATCC-29213), and methicillin-resistant Staphylococcus aureus (MRSA-43300) were used. Bacteria were cultivated in tryptic soy broth (TSB) (Merck, Darmstadt, Germany) at 37 °C and 225rpm or on TSB–agarose plates at 37 °C.
(§2) Bacteria were grown to an OD620 of 0.5, harvested by centrifugation, and washed with tris-glucose buffer (TG buffer: 10 mM tris, 5 mM glucose; pH = 7.4) (P. aeruginosa and S. aureus) or phosphate–glucose buffer (PG buffer: 10 mM K2HPO4, 5 mM glucose; pH = 7.4) (MRSA). Bacteria were adjusted to 2 × 10^6 colony forming units (CFU)/mL and were incubated in 1:2 dilutions for 2 h at 37 °C with CLEC3A-derived and modified CLEC3A-derived peptides in TG buffer or PG buffer. The known AMP LL-37 was used as a positive control, while the CLEC3A-derived peptides ST-16 (Ctrl 1) and DK-29 (Ctrl 2) and untreated bacteria were used as negative controls. The bacteria were then plated onto TSB–agarose plates in previously determined dilutions and cultured overnight at 37 °C. The number of grown colonies was determined with the ImageJ cell counter plugin and is presented as a percentage of the number of grown colonies from the untreated control. The minimal inhibitory concentration (MIC50) was defined as the concentration of antimicrobial peptide where only 50% of bacteria survived. Used peptide concentrations are provided in Supplementary Table S1.
(§3) Statistical analysis of results was performed with Prism 9.3.1 (471) (GraphPad, San Diego, CA, USA). All tables and graphs show calculated averages and standard deviations obtained from three individual experiments. Bar charts of the MIC50 include numerical values with confidence intervals (95%) as the legend. Statistical significance was determined with a paired ANOVA test followed by a Dunnett test and multiple comparisons, comparing each peptide with the respective parent peptide HT-16, HT-47, or WRK-30 as indicated in the figure captions.

S. aureus = type: cell-based, Staphylococcus aureus (ATCC-29213); settings: 2 h, pH 7.4
Procedure: as §1, §2, §3

P. aeruginosa = type: cell-based, Pseudomonas aeruginosa (Psae-27853); settings: 2 h, pH 7.4
Procedure: as §1, §2, §3

[2] = Biostability assay in murine serum; type: in vitro ADME, murine (C57BL6/N); settings: 30 µM peptide, room temperature; for Time for which the peptide was detectable in murine serum: pooled murine serum (C57BL6/N), samples 5 min, 10 min, n = 3
Procedure: The peptides (HT-47, WRK-30, and dWRK-30) were mixed with pooled murine serum, obtained from C57BL6/N wildtype mice via cardiac puncture immediately after death by cervical dislocation (the procedure was approved by the local government authority LANUV under permit no. UniKöln_Anzeige§4.22.001), to a final concentration of 30 µM. In parallel, a control with water and pooled murine serum was prepared. Both mixtures were incubated at room temperature, and samples were taken at the time points indicated in Supplementary Table S3. The samples were immediately added to a Novex Tricine SDS Sample Buffer containing a NuPage Sample Reducing Agent and incubated at 85 °C for 2 min. Boiled samples were stored at 4 °C. After the collection of all time points, samples were separated into 10–20% Tricine Gels. Gels with HT-47 and WRK-30 were subsequently transferred onto PVDF membranes (0.2 µm pore size) and immunoblot analysis with 1:200 dilutions of a custom-ordered and affinity-purified rabbit anti-WRK-30 (Eurogentec, Seraing, Belgium) antibody was performed. Gels with dWRK-30 were stained with Coomassie brilliant blue.

[3] = test system: gram-positive and gram-negative bacteria; settings: cited from earlier work
Description: We assessed the antimicrobial activity of the modified CLEC3A-derived peptides using an antimicrobial activity assay and determined their MIC50 (Figure 2). We used the well-investigated AMP LL-37 as a positive control. As negative controls, we used ST-16 (Ex1z), which corresponds to HT-16 with an abolished positive charge, and DK-29 (Ex2), which is solely the amphipathic α-helix of HT-47 without the positive charge of the N-terminus. […] First, we investigated the antimicrobial activity of the peptides modified from HT-16: RK-9 and ...

[4] = test system: primary human cartilage cells; settings: cited from earlier work
[5] = HT-47: immunoblot (anti-WRK-30), 6 h, 8 h, dWRK-30: SDS-PAGE, Coomassie, 24 h, 96 h

Compound	S. aureus MIC50 (S. aureus) [µM]	P. aeruginosa MIC50 (P. aeruginosa) [µM]	MRSA MIC50 (MRSA; 2 h, pH 7.4) [µM]	further results
CC[C@H](C)[C@H](NC(=O)[C@H](CCCCN)NC(=O)[C@H](CCC(=O)O)NC(=O)[C@H](CCCCN)NC(=O)[C@H](CO)NC(=O)[C@H](CCCCN)NC(=O)[C@H](CCCNC(=N)N)NC(=O)[C@H](Cc1ccccc1)NC(=O)[C@H](Cc1ccccc1)NC(=O)[C@H](CC(=O)O)NC(=O)CNC(=O)[C@H](CC(C)C)NC(=O)[C@@H](N)CC(C)C)C(=O)NCC(=O)N[C@@H](CCCCN)C(=O)N[C@@H](CCC(=O)O)C(=O)N[C@@H](Cc1ccccc1)C(=O)N[C@@H](CCCCN)C(=O)N[C@@H](CCCNC(=N)N)C(=O)N[C@H](C(=O)N[C@H](C(=O)N[C@@H](CCC(N)=O)C(=O)N[C@@H](CCCNC(=N)N)C(=O)N[C@H](C(=O)N[C@@H](CCCCN)C(=O)N[C@@H](CC(=O)O)C(=O)N[C@@H](Cc1ccccc1)C(=O)N[C@@H](CC(C)C)C(=O)N[C@@H](CCCNC(=N)N)C(=O)N[C@@H](CC(N)=O)C(=O)N[C@@H](CC(C)C)C(=O)N[C@H](C(=O)N1CCC[C@H]1C(=O)N[C@@H](CCCNC(=N)N)C(=O)N[C@H](C(=O)N[C@@H](CCC(=O)O)C(=O)N[C@@H](CO)C(=O)O)[C@@H](C)O)C(C)C)[C@@H](C)CC)C(C)C)[C@@H](C)CC [LL-37, reference compound]				Cytotoxicity to NIH3T3 cells, 24 h (in words) ([1]; Figure 5A, 0.3, 3 and 30 µM peptide, 24 h, MTS, absorbance 490 nm, % of untreated control, n = 3): cytotoxic effects; MRSA MIC50 (MRSA; Figure 2c series, 2 × 10^6 CFU/mL, 2 h at 37 °C in PG buffer pH 7.4, plating and colony count, n = 3, ± confidence interval (95%), na: not applicable): 2.40 ± 0.42 µM; MRSA MIC50 (MRSA; Figure 3c series, 2 × 10^6 CFU/mL, 2 h at 37 °C in PG buffer pH 7.4, n = 3, ± confidence interval (95%), na: not applicable): 2.63 ± 1.21 µM; MRSA MIC50 (MRSA; Figure 8c series, 2 × 10^6 CFU/mL, 2 h at 37 °C in PG buffer pH 7.4, n = 3, ± confidence interval (95%)): 0.52 ± 0.64 µM
CC[C@@H](C)[C@@H](NC(=O)[C@@H](CCC(=O)O)NC(=O)[C@@H](CCCCN)NC(=O)[C@@H](CC(C)C)NC(=O)[C@@H](C)NC(=O)[C@@H](CC(N)=O)NC(=O)[C@H](NC(=O)[C@@H](CCC(=O)O)NC(=O)[C@H](NC(=O)[C@@H](Cc1c[nH]c2ccccc12)NC(=O)[C@@H](CC(C)C)NC(=O)[C@@H](CCCCN)NC(=O)[C@@H](CCC(=O)O)NC(=O)[C@H](NC(=O)[C@@H](CCC(N)=O)NC(=O)[C@H](NC(=O)[C@@H](CCCCN)NC(=O)[C@@H](CC(C)C)NC(=O)CNC(=O)CNC(=O)CNC(=O)[C@@H](CCCNC(=N)N)NC(=O)[C@H](NC(=O)[C@@H](CCCNC(=N)N)NC(=O)[C@@H](CCCNC(=N)N)NC(=O)[C@@H](CCCCN)NC(=O)[C@@H](CO)NC(=O)[C@@H](Cc1c[nH]cn1)NC(=O)[C@@H](CCCCN)NC(=O)[C@@H](CCCNC(=N)N)NC(=O)[C@H](N)Cc1c[nH]c2ccccc12)C(C)C)[C@H](C)O)[C@H](C)CC)[C@H](C)O)C(C)C)C(=O)O [dWRK-30] (H-[dW][dR][dK][dH][dS][dK][dR][dR][dV][dR]GGG[dL][dK][dT][dQ][dI][dE][dK][dL][dW][dT][dE][dV][dN][dA][dL][dK][dE][dI]-OH)	0.66 ± 0.36	1.46 ± 1.55	2.34 ± 0.39	Time for which the peptide was detectable in murine serum [2, 5]: up to 96 h
DKDGDLKTQIEKLWTEVNALKEIQALQTVCL [DK-29, negative control, solely the amphipathic α-helix of HT-47 without the positive charge of the N-terminus]				Antimicrobial activity of negative control peptides (in words) [3]: Neither ST-16 nor DK-29 display any antimicrobial activity
HTSRLKARKHSKRRVR [HT-16]	0.24 ± 0.13	0.51 ± 0.11	9.25 ± 6.25	Toxic effects to primary human cartilage cells [4]: no toxic effects; Cytotoxicity towards murine fibroblasts, overall statement [1]: does not show any signs of cytotoxicity
HTSRLKARKHSKRRVRDKDGDLKTQIEKLWTEVNALKEIQALQTVCL [HT-47]			9.88 ± 2.43	Toxic effects to primary human cartilage cells [4]: no toxic effects; Time for which the peptide was detectable in murine serum [2, 5]: up to 8 h; Detection in murine serum after 24 h (in words) ([2]; pooled murine serum, immunoblot, 24 h (not shown)): disappeared
RKHSKRRVR [RK-9]	1.62 ± 2.67	4.17 ± 0.69		
RKHSKRRVRDKDGDLKTQIEKLWTEVNALKEI [RK-31]	4.85 ± 3.10			
RKHSKRRVRGGGLKTQIEKLWTEVNALKEI [RK-30]	0.63 ± 0.68	2.64 ± 1.79	4.51 ± 3.81	
STSQLQAQQSSQQQVQ [ST-16, negative control, corresponds to HT-16 with abolished positive charge]				Antimicrobial activity of negative control peptides (in words) [3]: Neither ST-16 nor DK-29 display any antimicrobial activity
WRKHSKRRVR [WRK-9]	0.56 ± 0.72	0.96 ± 0.46		
WRKHSKRRVRDKDGDLKTQIEKLWTEVNALKEI [WRK-31]	1.03 ± 0.30			
WRKHSKRRVRGGGLKTQIEKLWTEVNALKEI [WRK-30]				Time for which the peptide was detectable in murine serum ([2]; immunoblot (anti-WRK-30), 30 min, 1 h): up to 30 min
